Reference: US10662153B2 (The University of Toledo, priority 2016, dated 2020)

Legend:
[1] = tested on: wild-type mice on a high fat diet; conditions: mouse, in vivo
Protocol: (§4) With respect to animals, the procedures and protocols conform to the National Institutes of Health Guide for the Care and Use of Laboratory Animals, and were approved by the Institutional Animal Care and Use Committee of the University of Mississippi Medical Center. Tests were performed on 16 week old male PPARα knockout and wild-type mice on a C57 genetic background purchased from Jackson Labs (Bar Harbor, Me.). […] After this time, mice were switched to a 60% high fat diet (diet # D12492, Research Diets, Inc., New Brunswick, N.J.) for an additional 6 weeks. […] Control mice were not treated. Mice were euthanized on the last day of the test, at which time all organs were collected and weighed.
(§5) Following an 8 hour fast, a blood sample was obtained via orbital sinus under isoflorane anesthesia.
(§6) Plasma samples from individual mice were measured in duplicate and then averaged. The concentrations are expressed as mg/dL Plasma alanine aminotransferase (ALT) and aspartate aminotransferase (AST) levels were determined in 50 μL of plasma by colorimetric assay (Cobas, Rochce Diagnostics, Indianapolis, Ind.). Assays were performed according to the manufacturer's guidelines and samples were read on a Roche Cobas c501 analyzer. The concentrations were expressed as units/L.

[2] = format: physicochemical
From the text: (§1) This was to help increase the solubility of bilirubin in solution. […] Bilirubin was purchased commercially from Frontier Scientific.

[3] = tested on: PPARα KO mice on a high fat diet; conditions: mouse, in vivo
Protocol: as §4, §5, §6

[4] = Stability on heating during resin preparation; format: physicochemical; conditions: 75° C. for 90 min in DMF/H2O; judged by decrease in PPARα binding of resin
From the text: as §1

[5] = tested on: PPARα KO mice on a high fat diet; experiment: High fat diet PPARα KO mice treated for seven days; conditions: bilirubin 30 mg/kg or fenofibrate 90 mg/kg i.p.
Protocol: as §4, §5, §6

3T3-L1 cells = experiment: Adipogenesis assay (Nile Red lipid accumulation, Real-time PCR); format: cell-based, mouse
Protocol: Total RNA was read on a NanoDrop 2000® spectrophotometer (Thermo Fisher Scientific, Wilmington, Del.), and cDNA was synthesized using High Capacity cDNA Reverse Transcription Kit (Applied Biosystems). PCR amplification of the cDNA was performed by quantitative real-time PCR using TrueAmp® SYBR Green qPCR SuperMix (Advance Bioscience). The thermocycling protocol consisted of 10 min at 95° C., 40 cycles of 15 sec at 95° C., 30 sec at 60° C., and 20 sec at 72° C., and finished with a melting curve ranging from 60-95° C. to allow distinction of specific products. Normalization was performed in separate reactions with primers to GAPDH.
Adipogenic differentiation of 3T3-L1 cells was achieved by treatment with 1 μM Dex, 830 nM insulin, and 100 μM isobutylmethylxanthine in 10% FBS until Day 9. Upon differentiation, cells were stained with Nile Red to visualize lipid content, and densitometry was used as a direct measure. Total RNA extracted from Nile Red stained cells was used for real time PCR analysis.

PPARα [6] = biological target: T1, PPARα (Mus musculus, UniProt P23204); experiment: Promoter reporter assay (PPRE-3tk-luc luciferase) in Cos7 cells; conditions: for level of PPARα activation compared among the ligands / PPARα activity at the minimal luciferase promoter: PPARα overexpressed, 50 μM each; for level of PPARα activation compared among the ligands: 24 hours (FIG. 3C); for PPARα activity at the minimal luciferase promoter: vs Veh (FIG. 3C)
T1 sequence (P23204 1-468): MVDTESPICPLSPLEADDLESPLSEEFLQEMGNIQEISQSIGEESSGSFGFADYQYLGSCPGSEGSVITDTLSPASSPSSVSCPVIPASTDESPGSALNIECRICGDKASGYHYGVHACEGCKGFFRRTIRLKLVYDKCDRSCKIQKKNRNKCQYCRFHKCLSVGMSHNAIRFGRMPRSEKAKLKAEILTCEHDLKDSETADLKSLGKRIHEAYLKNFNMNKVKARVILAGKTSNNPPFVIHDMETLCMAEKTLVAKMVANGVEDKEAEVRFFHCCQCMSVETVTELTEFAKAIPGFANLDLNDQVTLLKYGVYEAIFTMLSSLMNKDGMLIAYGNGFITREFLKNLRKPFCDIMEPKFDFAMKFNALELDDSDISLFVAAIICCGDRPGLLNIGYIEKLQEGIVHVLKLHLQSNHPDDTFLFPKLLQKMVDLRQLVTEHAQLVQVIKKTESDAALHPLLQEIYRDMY
Protocol: Cos7 cells were transiently transfected with a minimal PPARα responsive promoter luciferase construct (PPRE-3tk-luc) for 24 hours along with an empty vector and a vector containing PPARα cDNA (overexpression).
The mouse 3T3-L1 preadipocyte, Hepa1c1c7, and Cos7 green kidney monkey cells were routinely cultured and maintained in Dulbecco's Modified Eagles's Medium (DMEM) containing 10% bovine calf serum or FBS with 1% penicillin-streptomycin.
A PPARα minimal promoter PPRE-3tk-luc activity was measured by luciferase, and pRL-CMV Renilla reporter for normalization to transfection efficiency. Transient transfection was achieved using GeneFect® (Alkali Scientific, Inc.). Twenty-four-hour post-transfected cells were lysed and the luciferase assay was performed using the Promega® dual luciferase assay system (Promega, Madison, Wis.).

[7] = tested on: hepa1c1c7 mouse hepatocytes overexpressing PPARα; experiment: PPARα controlled genes in hepa1c1c7 liver cells (Real-time PCR); format: cell-based; conditions: 50 μM, 24 hours, dialyzed fatty acid-free media
Protocol: (§2) (FIG. 4D.) RNA was extracted and mRNA expression was measured by Real-time PCR.
(§3) To establish a 3T3-L1 or Hepa1c1c7 cell line that have PPARα stably overexpressed, mouse PPARα cDNA was ligated into the NotI/BamHI sites of the pQXCIP vector and transformed in DH5α cells (Invitrogen, Carlsbad, Calif.). […] The supernatants were harvested, and the cell debris was removed by centrifugation at 2000×g. The supernatant was used to infect 3T3-L1 or Hepa1c1c7 cells after addition of polybrene ([…], Sigma Chemical Co., St. Louis, Mo.) to establish cell lines with stable overexpression of a PPARα overexpressing (3T3-PPARα) or expressing empty vector (3T3-Vector). After 72 h the cells were selected with puromycin, and positive cells were confirmed by Western blotting and used for experiments.

PPARα OE 3T3-L1 cells = experiment: Endogenous PPARα gene regulatory activity in 3T3-L1 cells (Real-time PCR); format: cell-based, mouse; conditions: 50 μM, 24 hours, dialyzed fatty acid-free media
Protocol: as §2, §3

PPARα [8] = biological target: T1, PPARα; experiment: Pull-down assay with ligand-coupled sepharose resins, PPARα OE 3T3-L1 cells; format: binding; set-up: expressed in transfected cells; conditions: ligand coupled to sepharose beads
Protocol: The ligand coupling was performed according to the GE Healthcare instructions (71-7097-00 AE, pg. 6) for EAH Sepharose™ 4B. The procedure in the online instructions was titled “A general ligand coupling procedure”. […] Resin coupling procedures were conducted in a DMF/H2O solvent system (1:1) with a final concentration of 0.1 M EDC*HCl. […] Upon completion, resins were washed according to the GE instructions (3 alternating washings with 0.5 M NaCl containing 0.1 M sodium acetate pH 4.5 and 0.5 M NaCl containing 0.1 M Tris pH 8) over a 10-15 μm fritted filter. As an additional step to the GE instructions, matrix-coupled bilirubin and biliverdin coupled preparations were further washed with 50% DMSO/H2O solutions (250 mL) to remove any unreacted ligand. The filtrate was nearly colorless after this step. […] The resins were suspended in 20% EtOH/H2O (15 mL) and stored at 4° C. for 16 h in capped sample vials. The ligand-coupled resin settles overnight and the supernatant was carefully decanted until minimal amounts of 20% EtOH/H2O covered the resin. […]
Whole cell extracts (WCE) were prepared by freezing the cell pellet overnight at −80° C. […] Immunoreactivity was visualized and quantified by infrared scanning in the Odyssey system (LI-COR Biosciences). […]

[9] = 10 μM, differentiated 3T3-L1 adipocytes

solubility in organic solvents [2]	level of PPARα activation compared among the ligands (PPARα [6]; Cos7 cells)	PPARα activity at the minimal luciferase promoter (PPARα [6]; Cos7 cells, 24 hours)	Compound	reduction of lipid accumulation (3T3-L1 cells; 10 μM over the 9 day protocol) [%]	reduction of lipid accumulation (3T3-L1 cells; 50 μM over the 9 day protocol) [%]	CD36 mRNA [7]	CYP4A10 mRNA [7]	FGF21 mRNA response [7]	Pyruvate dehydrogenase kinase 4 (PDK4) expression [7]	angiopoietin-like 4 (ANGPTL4) expression [7]	heme oxygenase-1 (HO-1) mRNA response [7]	CD36 mRNA expression (PPARα OE 3T3-L1 cells)	expression of FAS (3T3-L1 cells; [9])	further results
limited solubility			C=CC1=C(C)/C(=C/c2[nH]c(Cc3[nH]c(/C=C4\NC(=O)C(C)=C4C=C)c(C)c3CCC(=O)O)c(CCC(=O)O)c2C)NC1=O [bilirubin]											alanine aminotransferase (ALT) [1]: no change; aspartate aminotransferase (AST) [1]: no change; alanine aminotransferase (ALT) [3]: significantly (p<0.05) decreased; aspartate aminotransferase (AST) [3]: significantly (p<0.05) decreased; stability with heating [4]: less stable with heating; body weight [5]: no effect
			CC(C)OC(=O)C(C)(C)Oc1ccc(C(=O)c2ccc(Cl)cc2)cc1 [fenofibrate]	48	51									
readily soluble	same level of PPARα activation	significantly (p<0.0001) increased	C=CC1=C(C)/C(=C/C2=NC(=C\c3[nH]c(/C=C4\NC(=O)C(C)=C4C=C)c(C)c3CCC(=O)O)/C(CCC(=O)O)=C2C)NC1=O [biliverdin]	50	91	not	not	increased	increased with all the ligands	significantly increased	increased	significantly (p<0.05) increased CD36 mRNA expression more than fenofibrate	significantly (p<0.001) decreased expression of FAS	PPARα activity (PPRE-3tk-luc) (PPARα [6]; Cos7 cells, PPARα overexpression, dose dependence, 24 hours, vs 0 μM): significantly (p<0.05) increased; PPRE-3tk-luc promoter activation in the absence of PPARα (PPARα [6]; Cos7 cells, empty vector, dose dependence, 24 hours): did not activate; water solubility [2]: greater water solubility than bilirubin; CPT1 expression (PPARα OE 3T3-L1 cells): increased CPT1 and FGF21 expression more than WY 14,643 treatment; FGF21 mRNA expression (PPARα OE 3T3-L1 cells): significantly (p<0.05) enhanced FGF21 mRNA higher than fenofibrate; reduction of lipid accumulation (3T3-L1 cells; 10 μM over the 9 day protocol, listed as Biliverdin): 49%; expression of CPT1 (3T3-L1 cells; [9]): significantly (p<0.001) increased expression of CPT1
readily soluble	higher than biliverdin or fenofibrate	significantly (p<0.0001) increased	Cc1cccc(Nc2cc(Cl)nc(SCC(=O)O)n2)c1C [WY 14,643]	56	33	responded	responded	not	significantly (p<0.05) higher	significantly increased	not	strongly induced expression	significantly (p<0.001) decreased expression of FAS	induction of PPARα activity (PPARα [6]; Cos7 cells transfected with PPARα and RXR, 50 μM, 24 hrs (FIG. 12)): 2.1 fold; direct binding to PPARα (pull-down) (PPARα [8]): can directly bind
